# Results taken from patent publication US5262157A (priority 1988, dated 1993).
# Read-outs that look alike come from different tables or passages of the source.
# Legend:
# in vivo [1] = conditions: rat; for Pentamidine concentration, Kidney: aerosol 0.4 mg/kg/day, 24 h after last dose
# Experimental: (§1) Rats were treated in groups of four. […] Doses in all trials were calculated as above.
# Pneumocystis carinii [2] = assay: Experimental rat model of Pneumocystis carinii pneumonia (PCP); type: in vivo; conditions: for Cysts/hpf in lung at necropsy: high power field 400×
# Experimental: as §1
# Treatment regimens were tested in the standard animal model of PCP (6). To induce infection with P. carinii, rats were immunosuppresed with steriods for twelve weeks while restricted to a low-protein diet and tetracycline. Administration of a test regimen was initiated early during the induction period to determine its effectiveness in preventing PCP and was initiated late during the induction period to determine its effectiveness in treating PCP. Male Sprague-Dawley rats weighing 175-225 g were used. Rats were given twice weekly subcutaneous injections of 75 mg/kg of cortisone acetate, were maintained on an 8% protein diet, and were treated with tetracycline via their drinking water. Rats were sacrificed after twelve weeks of this regimen and the extent of infection was judged by counting cysts in toluidine blue 0-stained smears of lung homogenates. Lung homogenates were prepared by combining a weighed portion of tissue with nine ml of 0.1N HCl per g.
# in vivo [3] = conditions: rat; for concentration at 24 h: inhaled or intranasal, 3.2 mg/kg/day, aerosol 3.2 mg/kg daily × 4, 24 h after last dose
# Experimental: as §1
# Treatments were well-tolerated. […] There were rare foci of mild thickening of interalveolar septae containing a few histiocytes and some congestion. […] These were also seen in sections from control animals and are common findings in normal rat lung.
# [4] = human, in vivo
# Source text: Patients were 18 years old or older and outpatients judged free of any imminently-critical medical problems. All patents received a complete physical examination and medical history evaluation. Pretreatment laboratory studies included a CBC with differential and platelet count, a biochemical screening profile, chest X-ray, and pulmonary function tests including spirometry and measurement of diffusion capacity.
# Each patient was issued a device at the start of the study. These devices were labeled with the patient's code number. The devices are simple to operate and their sterility was ensured as components were replaced after a single use. New sterile plastic reservoirs for the drug solution and new sterile suction rods were used for each treatment.
# (§2) Each aerosol treatment was given over 15-30 minutes. […] 1.0, 1.5,or 2.0 ml aliquots were added to the nebulizer reservoir for doses of 30, 45, or 60 mg, respectively. Sterile pyrogen-free water was added to yield a total volume of 3.0 ml. Treatments were administered by a physician or registered nurse.
# Signs of systemic toxicity were monitored. To detect adverse effects on the lungs, pulmonary function was monitored.
# All problems were judged a concomitant illness or adverse reaction based on the following definitions. […]
# Patients were interviewed before and after each treatment and any adverse reactions, complaints, or comments recorded. […]
# Pneumocystis carinii [5] = assay: Clinical effectiveness of aerosol pentamidine in prophylaxis of PCP; type: in vivo, human
# Experimental: as §2
# Prophylaxis was judged effective for an individual patient if that patient had no proven or probable episodes of PCP. Prophylaxis was considered a proven failure if a patinet developed pneumonia and P. carinii was found in stained preparations obtained by bronchoscopy or lung biopsy. Prophylaxis was considered a probable failure if a patient develops pneumonia and responded to empiric treatment with SXT […]. If a patient died and no autopsy was perfomed, the case was considered not evaluable unless there was evidence that the patient had good antemortem pulmonary function and died from other causes. If the latter conditions were met, the case was considered a probable success.
# The treatment period was three months; patients were examined before and after each treatment and underwent pulmonary function testing and biochemical and hematologic tests before treatment no. 1 and after treatment nos. 1, 2, 4, and 6.
# A total of 650 treatments were given. Treatment periods ranged from 1-12 months. […] They had no reactions after their first four doses and was receiving several other medications at the time the rash developed. […] Five proven episodes of PCP have occurred among patients who received biweekly doses of 30 mg; six proven episodes of PCP have occurred among patients who were treated with this dose, but who skipped one or more scheduled doses.
# A total of 73 patients were enrolled over the past two months with approximately equal numbers at each dose level. […] Patients who were receiving the low dose have since been randomized to receive either 45 or 60 mg. To date two patients receiving 45 mg have had proven episodes of PCP.
# Pneumocystis carinii [6] = conditions: patients with AIDS, IV or IM 4 mg/kg/day, 14-21 days; cited from earlier work
# [7] = rat, aerosol doses greatly exceeding the therapeutic dose; cited from earlier work
# [8] = cited from earlier work
# [9] = Trial I, 0.4 mg/kg aerosol weekly, wk 5-11, mean ± standard deviation
# [10] = Trial I, 4.0 mg/kg IM weekly, wk 5-11, mean ± standard deviation
# [11] = Trial I, prophylactic aerosol 0.4 mg/kg weekly, weeks 5-11
# [12] = Trial II, 0.2 mg/kg aerosol weekly, wk 7-11, mean ± standard deviation
# [13] = Trial II, 0.4 mg/kg aerosol daily, 4×, wk 10, mean ± standard deviation
# [14] = Trial III, 0.4 mg/kg aerosol biweekly, wks 7, 9, 11, mean ± standard deviation
# [15] = Trial III, 0.4 mg/kg aerosol daily, 4×, wk 12, mean ± standard deviation
# [16] = Trial III, 0.8 mg/kg aerosol monthly, wks 4, 8, mean ± standard deviation
# [17] = aerosol 45 mg, weekly for four weeks then biweekly
smiles,measurement,setting,value
"N=C(N)c1ccc(OCCCCCOc2ccc(C(=N)N)cc2)cc1 [pentamidine, Pentamidine isethionate]","Pentamidine concentration, Kidney",in vivo [1]; 1 dose,NMA
same,"Pentamidine concentration, Kidney",in vivo [1]; 2 doses,NMA
same,"Pentamidine concentration, Kidney",in vivo [1]; 4 doses,NMA
same,concentration at 24 h,"in vivo [1]; in vivo, inhaled or intranasal, 0.4 mg/kg/day, levels in the lung",60500 ng/g
same,Cysts/hpf in lung at necropsy,"Pneumocystis carinii [2]; Trial I, 0.4 mg/kg aerosol weekly, wk 5-11",< 1 Cysts/hpf
same,Lung weight at necropsy,Pneumocystis carinii [2]; [9],1.94 ± 0.21 g
same,Pent in lung at necropsy,Pneumocystis carinii [2]; [9],29.7 ± 7.1 µg/g
same,Cysts/hpf in lung at necropsy,Pneumocystis carinii [2]; [10],102 ± 88 Cysts/hpf
same,Lung weight at necropsy,Pneumocystis carinii [2]; [10],3.28 ± 1.15 g
same,Pent in lung at necropsy,Pneumocystis carinii [2]; [10],4.5 ± 1.7 µg/g
same,"effectiveness in prevention of PCP, aerosol versus IM","Pneumocystis carinii [2]; Trial I, aerosol 0.4 mg/kg vs IM 4.0 mg/kg weekly",more effective in prevention of PCP than tenfold higher doses of IM pentamidine
same,cysts of P. carinii in stained smears of lung homogenates,Pneumocystis carinii [2]; [11],rare or absent
same,lung weight and appearance,Pneumocystis carinii [2]; [11],normal in weight and appearance
same,severity of infection versus control animals,Pneumocystis carinii [2]; [11],more than a thousandfold less severe infection than was seen in control animals
same,Lung weight at necropsy,Pneumocystis carinii [2]; [12],1.43 ± 0.31 g
same,Pent in lung at necropsy,Pneumocystis carinii [2]; [12],15.2 ± 5.0 µg/g
same,Cysts/hpf in lung at necropsy,Pneumocystis carinii [2]; [13],20.8 ± 30.8 Cysts/hpf
same,Lung weight at necropsy,Pneumocystis carinii [2]; [13],1.20 ± 0.20 g
same,Pent in lung at necropsy,Pneumocystis carinii [2]; [13],15.8 ± 10.9 µg/g
same,effectiveness of prophylactic regimen,"Pneumocystis carinii [2]; Trial II, aerosol weekly, weeks 7-11, 0.1 mg/kg",effective
same,Cysts/hpf in lung at necropsy,Pneumocystis carinii [2]; [14],48 ± 109 Cysts/hpf
same,Lung weight at necropsy,Pneumocystis carinii [2]; [14],1.41 ± 0.64 g
same,Pent in lung at necropsy,Pneumocystis carinii [2]; [14],13.4 ± 7.9 µg/g
same,Cysts/hpf in lung at necropsy,Pneumocystis carinii [2]; [15],188 ± 255 Cysts/hpf
same,Lung weight at necropsy,Pneumocystis carinii [2]; [15],2.08 ± 0.68 g
same,Pent in lung at necropsy,Pneumocystis carinii [2]; [15],8.3 ± 6.4 µg/g
same,Cysts/hpf in lung at necropsy,Pneumocystis carinii [2]; [16],4.6 ± 4.2 Cysts/hpf
same,Lung weight at necropsy,Pneumocystis carinii [2]; [16],1.26 ± 0.26 g
same,Pent in lung at necropsy,Pneumocystis carinii [2]; [16],16.1 ± 3.3 µg/g
same,effectiveness of prophylactic regimens,"Pneumocystis carinii [2]; Trial III, aerosol 0.8 mg/kg monthly and 0.4 mg/kg biweekly",effective
same,prevention of PCP in the animal model,Pneumocystis carinii [2]; low and infrequent aerosol treatment,highly effective in prevention of PCP
same,retention of aerosol pentamidine,Pneumocystis carinii [2]; normal animals and early prophylactic doses vs animals treated with severe pneumonia,greater in normal animals and in animals that received early prophylactic doses than it was in animals who were treated when they had severe pneumonia
same,effectiveness of therapeutic regimen,"Pneumocystis carinii [2]; rat, in vivo",partially effective
same,number of cysts versus lung pentamidine concentration,Pneumocystis carinii [2]; within the prophylaxis and treatment groups,the lowest number of cysts were found in animals with the highest concentrations of pentamidine in the lung
same,concentration at 24 h,in vivo [3]; kidney,7200 ng/g
same,concentration at 24 h,in vivo [3]; lung,291000 ng/g
same,lung weight and appearance,in vivo [3]; aerosol 3.2 mg/kg daily × 4,normal in weight and appearance
same,toxicity of high lung concentrations,in vivo [3]; aerosol 3.2 mg/kg daily × 4,little or no toxicity
same,tolerability of treatments,in vivo [3]; aerosol 3.2 mg/kg daily × 4 (total dose 12.8 mg/kg),well-tolerated
same,histopathology of lungs,"in vivo [3]; aerosol 3.2 mg/kg daily × 4, stained sections",no histopathologic changes were found
same,tolerability of treatments,[4],well tolerated
same,proven episodes of PCP,"Pneumocystis carinii [5]; aerosol 30 mg biweekly, 60 patients, 1-12 months",Five
same,proven episodes of PCP in patients who skipped one or more scheduled doses,"Pneumocystis carinii [5]; aerosol 30 mg biweekly, skipped doses",six
same,proven or possible episodes of PCP,"Pneumocystis carinii [5]; aerosol 30 mg biweekly, twelve patients, three months",no patient had a proven or possible episode of PCP
same,protection,Pneumocystis carinii [5]; aerosol 30 mg dose,not reliably protective
same,patients with proven episodes of PCP,Pneumocystis carinii [5]; [17],two
same,severity of PCP episodes,Pneumocystis carinii [5]; [17],very mild episodes
same,mild cases of PCP,"Pneumocystis carinii [5]; all phases, 960 doses, 116 patients",seven
same,protection,"Pneumocystis carinii [5]; all phases, preliminary evidence",at least partially protective
same,treatment of PCP infection,Pneumocystis carinii [6],highly effective in treatment of PCP infection
same,toxicity in histopathologic sections from the lungs,[7],No toxicity was seen
same,elimination from blood,[8]; IV or IM,eliminated rapidly from blood
same,elimination from tissues,[8]; in vivo,eliminated slowly from them
